# The source made the active and inactive calls. No cut-off for these calls is given here.
# Columns and labels:
# [1] = Metabolic stability in rat liver microsomes assessed as half life; assay type: ADME, Microsome
# A549 [2] = test: Induction of autophagy in human A549 cells assessed as downregulation of AKT phosphorylation level at 5 to 10 uM measured after 24 hrs by Western blot analysis; assay type: functional, cell-based; details: dose 5-10 µM
# Cell membrane [3] = test: Induction of mitochondrial membrane potential loss in human A549 cells assessed as […] aggregates at 10 uM incubated for 24 hrs by JC-1 staining based flow cytometry analysis (reference value: 93.8%); assay type: cell membranes
# [4] = Toxicity in BALB/c nude mouse assessed as effect on liver at 25 to 50 mg/kg, ip measured after 3 weeks by H and E staining based analysis; assay type: organism-based; details: in vivo, 504 h, dose 25-50 mg/kg
# [5] = Toxicity in BALB/c nude mouse assessed as effect on heart at 25 to 50 mg/kg, ip measured after 3 weeks by H and E staining based analysis; assay type: organism-based; details: in vivo, 504 h, dose 25-50 mg/kg
# A549 [6] = test: Inhibition of Gln uptake in human A549 cells assessed as reduction in succinate level incubated for 24 hrs by LC-MS/MS analysis; assay type: functional, cell-based
# [7] = target: T1, Neutral amino acid transporter B(0) (Homo sapiens, UniProt Q15758); test: Inhibition of ASCT2 in human A549 cells assessed as reduction in glutamine uptake preincubated for 5 mins followed by substrate addition and measured after 15 mins; assay type: cell-based
# T1 sequence (Q15758 whole entry): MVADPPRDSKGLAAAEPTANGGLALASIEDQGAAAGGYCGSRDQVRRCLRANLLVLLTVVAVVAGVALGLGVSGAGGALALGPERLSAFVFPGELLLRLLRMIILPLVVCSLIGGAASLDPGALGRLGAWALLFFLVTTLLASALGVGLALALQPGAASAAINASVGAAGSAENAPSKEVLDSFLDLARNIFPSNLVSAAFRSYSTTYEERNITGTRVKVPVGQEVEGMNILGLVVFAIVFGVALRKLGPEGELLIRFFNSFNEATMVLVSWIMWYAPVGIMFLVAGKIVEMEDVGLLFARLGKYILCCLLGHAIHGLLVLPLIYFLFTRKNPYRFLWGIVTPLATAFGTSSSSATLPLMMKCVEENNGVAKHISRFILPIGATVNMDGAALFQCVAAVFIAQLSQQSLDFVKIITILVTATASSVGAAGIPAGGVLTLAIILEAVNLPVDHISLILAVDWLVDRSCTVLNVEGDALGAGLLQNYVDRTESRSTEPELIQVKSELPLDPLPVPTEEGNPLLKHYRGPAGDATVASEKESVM
# [8] = Half life in Sprague-Dawley rat at 10 mg/kg, ip incubated for 24 hrs by LC-MS/MS analysis; assay type: ADME, organism-based; details: in vivo
# [9] = target: Large neutral amino acids transporter small subunit 1 (Homo sapiens) (UniProt Q01650); test: Inhibition of LAT1 (unknown origin) overexpressed in HEK293 cells assessed as reduction in [13C]-Gln uptake preincubated for 5 mins followed by substrate addition and measured after 15 mins; assay type: cell-based; details: time 20.0 min
# Sequence of Large neutral amino acids transporter small subunit 1 (Homo sapiens) (Q01650 whole entry): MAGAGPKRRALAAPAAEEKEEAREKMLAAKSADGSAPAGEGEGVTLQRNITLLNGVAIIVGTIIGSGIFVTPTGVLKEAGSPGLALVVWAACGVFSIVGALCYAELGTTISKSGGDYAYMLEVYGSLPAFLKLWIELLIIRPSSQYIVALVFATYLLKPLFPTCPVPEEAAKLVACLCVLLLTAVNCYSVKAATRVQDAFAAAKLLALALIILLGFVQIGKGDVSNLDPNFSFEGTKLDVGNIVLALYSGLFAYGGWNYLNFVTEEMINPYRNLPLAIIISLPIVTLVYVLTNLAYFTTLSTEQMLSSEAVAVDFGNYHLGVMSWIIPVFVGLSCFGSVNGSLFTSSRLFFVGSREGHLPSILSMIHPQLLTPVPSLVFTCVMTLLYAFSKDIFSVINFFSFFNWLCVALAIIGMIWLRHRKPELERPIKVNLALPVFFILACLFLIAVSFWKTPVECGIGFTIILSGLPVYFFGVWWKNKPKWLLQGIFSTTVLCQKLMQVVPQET
# [10] = Toxicity in BALB/c nude mouse assessed as effect on body weight at 25 to 50 mg/kg, ip measured daily for 3 weeks; assay type: organism-based; details: in vivo, 504 h, dose 25-50 mg/kg
# A549 [11] = test: Induction of apoptosis in human A549 cells assessed as caspase 3 activation at 5 to 10 uM incubated for 24 hrs by Western blot analysis; assay type: functional, cell-based; details: dose 5-10 µM
# NSCLC [12] = test: Antiproliferative activity against human NSCLC cells cultured as HCC827 organoids assessed as cell viability incubated for 96 hrs by Celltiter-glo viability assay; assay type: functional, cell-based
# [13] = Metabolic stability in rat liver microsomes assessed as intrinsic clearance; assay type: ADME, Microsome; details: read-out: CLH
# A549 [14] = test: Inhibition of Gln uptake in human A549 cells assessed as reduction in fumarate level incubated for 24 hrs by LC-MS/MS analysis; assay type: functional, cell-based
# [15] = Toxicity in BALB/c nude mouse assessed as effect on spleen at 25 to 50 mg/kg, ip measured after 3 weeks by H and E staining based analysis; assay type: organism-based; details: in vivo, 504 h, dose 25-50 mg/kg
# [16] = Apparent clearance in Sprague-Dawley rat at 10 mg/kg, ip incubated for 24 hrs by LC-MS/MS analysis; assay type: ADME, organism-based; details: in vivo
# Cell membrane [17] = test: Induction of mitochondrial membrane potential loss in human A549 cells assessed as […] aggregates incubated for 24 hrs by JC-1 staining based flow cytometry analysis; assay type: cell membranes; details: dose 5-10 µM
# [18] = Cmax in Sprague-Dawley rat at 10 mg/kg, ip incubated for 24 hrs by LC-MS/MS analysis; assay type: ADME, organism-based; details: in vivo
# A549 [19] = test: Antiproliferative activity against human A549 cells assessed as reduction in cell viability after 72 hrs by MTT assay; assay type: functional, cell-based; details: A549, 72 h
# [20] = Toxicity in BALB/c nude mouse assessed as effect on kidney at 25 to 50 mg/kg, ip measured after 3 weeks by H and E staining based analysis; assay type: organism-based; details: in vivo, 504 h, dose 25-50 mg/kg
# [21] = Apparent volume of distribution with respect to the bioavailability in Sprague-Dawley rat at 10 mg/kg, ip incubated for 24 hrs by LC-MS/MS analysis; assay type: ADME, organism-based; details: in vivo, read-out: Vc/F
# NSCLC [22] = test: Antiproliferative activity against human NSCLC cells cultured as H1975 organoids assessed as cell viability incubated for 96 hrs by Celltiter-glo viability assay; assay type: functional, cell-based
# A549 [23] = test: Antitumor activity against human A549 cells xenografted in BALB/c nude mouse assessed as tumor growth inhibition at 25 mg/kg, ip measured daily for 3 weeks relative to control; assay type: functional; details: A549, 504 h, read-out: TGI
# A549 [24] = test: Antitumor activity against human A549 cells xenografted in BALB/c nude mouse assessed as inhibition of tumor volume at 25 to 50 mg/kg, ip measured daily for 3 weeks; assay type: functional, organism-based; details: dose 25-50 mg/kg
# [25] = AUC (0 to t) in Sprague-Dawley rat at 10 mg/kg, ip incubated for 24 hrs by LC-MS/MS analysis; assay type: ADME, organism-based; details: in vivo
# A549 [26] = test: Induction of autophagy in human A549 cells assessed as downregulation of p62 level at 5 to 10 uM measured after 24 hrs by Western blot analysis; assay type: functional, cell-based; details: dose 5-10 µM
# NSCLC [27] = test: Antiproliferative activity against human NSCLC cells cultured as 2422 organoids assessed as cell viability incubated for 96 hrs by Celltiter-glo viability assay; assay type: functional, cell-based
# A549 [28] = test: Induction of oxidative stress in human A549 cells assessed as upregulation of ROS production incubated for 24 hrs by DCFH-DA staining based flow cytometry analysis; assay type: functional, cell-based; details: dose 5-10 µM
# [29] = target: T1, Neutral amino acid transporter B(0); test: Inhibition of ASCT2 in HEK293 cells assessed as reduction in glutamine uptake preincubated for 5 mins followed by substrate addition and measured after 15 mins; assay type: cell-based
# NSCLC [30] = test: Antiproliferative activity against human NSCLC cells cultured as 2862 organoids assessed as cell viability incubated for 96 hrs by Celltiter-glo viability assay; assay type: functional, cell-based
# A549 [31] = test: Inhibition of AKT/mTORC signalling in human A549 cells assessed as decrease in p70S6K level at 5 to 10 uM measured after 24 hrs by Western blot analysis; assay type: cell-based; details: dose 5-10 µM
# [32] = Tmax in Sprague-Dawley rat at 10 mg/kg, ip incubated for 24 hrs by LC-MS/MS analysis; assay type: ADME, organism-based; details: in vivo
# A549 [33] = test: Inhibition of Gln uptake in human A549 cells assessed as reduction in intracellular glutamate level incubated for 24 hrs by LC-MS/MS analysis; assay type: functional, cell-based
SMILES,half-life [1] [h],Activity (A549 [2]),Activity (Cell membrane [3]) [%],Activity [4],Activity [5],inhibition (A549 [6]),IC50 [7] [µM],half-life [8] [h],inhibition [9],Activity [10],Activity (A549 [11]),IC50 (NSCLC [12]) [µM],microsomal CLint [13] [µL/min/mg],inhibition (A549 [14]),Activity [15],CL/F [16] [mL/min/kg],Activity (Cell membrane [17]),Cmax [18] [ng/mL],IC50 (A549 [19]) [µM],Activity [20],also measured
CC(C)(C)c1ccc(OCC#Cc2ccccc2)c(CN(CC[C@H](N)C(=O)O)Cc2cc(C(C)(C)C)ccc2OCC#Cc2ccccc2)c1,2.78,Active,60.3,Toxic,Toxic,Active,19.2,19.4,inactive,Non-Toxic,Active,2.36,8.27,Active,Toxic,12,Dose-Dependent Effect,874,5.83,Toxic,Vd/F [21]: 20 L/kg; IC50 (NSCLC [22]): 1.09 µM; inhibition in vivo at 25 mg/kg (A549 [23]): 70%; Activity (A549 [24]): Active; AUC(0-t) at 24 h [25]: 13800 ng·h/mL; Activity (A549 [26]): Active; IC50 (NSCLC [27]): 0.12 µM; Activity (A549 [28]): Dose-Dependent Effect; IC50 [29]: 5.14 µM; IC50 (NSCLC [30]): 2.85 µM; inhibition (A549 [31]): Active; Tmax [32]: 5.33 h; inhibition (A549 [33]): Active
N[C@@H](CCN(Cc1ccccc1OCC#Cc1ccc(Cl)cc1)Cc1ccccc1OCC#Cc1ccc(Cl)cc1)C(=O)O,0.619,Active,82.4,Toxic,Toxic,Active,5.6,9.41,inactive,Non-Toxic,Active,22.4,37.5,Active,Toxic,60.5,Dose-Dependent Effect,323,10.3,Toxic,Vd/F [21]: 49.5 L/kg; IC50 (NSCLC [22]): 8.45 µM; inhibition in vivo at 25 mg/kg (A549 [23]): 65%; Activity (A549 [24]): Active; AUC(0-t) at 24 h [25]: 2670 ng·h/mL; Activity (A549 [26]): Active; IC50 (NSCLC [27]): 7.34 µM; Activity (A549 [28]): Dose-Dependent Effect; IC50 [29]: 3.5 µM; IC50 (NSCLC [30]): 5.21 µM; inhibition (A549 [31]): Active; Tmax [32]: 1.17 h; inhibition (A549 [33]): Active

# Source: ChEMBL document CHEMBL5537180, “Discovery of Novel Aminobutanoic Acid-Based ASCT2 Inhibitors for the Treatment of Non-Small-Cell Lung Cancer” (J Med Chem, 2024)
